Laboratory results as given in patent US5326882A, “Chemiluminescent 3-(substituted Adamant-2'-Ylidene) 1,2-dioxetanes” (Tropix, Inc., priority 1992, dated 1994).

How the values were obtained:
[1] = target: T1, alkaline phosphatase (calf intestine; Biozyme) (Bos taurus, UniProt P19111); experiment: Total dephosphorylation, chemiluminescence decay (Example XIII); type: biochemical; settings: 30° C., carbonate/bicarbonate buffer, listed as OH-Adamant-2'-ylidene (A isomer)
T1 construct: purchased Biozyme; host or cells: calf intestine
T1 sequence (P19111 20-506 limits assumed): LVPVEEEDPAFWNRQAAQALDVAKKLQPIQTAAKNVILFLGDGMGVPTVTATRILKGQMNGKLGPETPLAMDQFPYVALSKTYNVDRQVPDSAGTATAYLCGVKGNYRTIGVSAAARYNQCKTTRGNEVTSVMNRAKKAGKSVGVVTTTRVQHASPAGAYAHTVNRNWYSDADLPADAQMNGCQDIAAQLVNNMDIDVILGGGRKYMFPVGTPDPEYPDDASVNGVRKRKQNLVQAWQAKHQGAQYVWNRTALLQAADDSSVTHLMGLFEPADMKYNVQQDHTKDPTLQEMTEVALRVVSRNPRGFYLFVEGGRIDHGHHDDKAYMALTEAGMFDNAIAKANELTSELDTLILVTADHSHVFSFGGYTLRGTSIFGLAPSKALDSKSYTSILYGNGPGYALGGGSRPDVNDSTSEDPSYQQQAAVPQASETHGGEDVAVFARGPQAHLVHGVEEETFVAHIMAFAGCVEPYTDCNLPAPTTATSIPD
Protocol: A comparison of the total luminescence emission from AMPPD and from the corresponding 1,2-dioxetanes whose adamant-2'-ylidene groups are monosubstituted with hydroxy (A and B isomers), chloro and bromo groups was made by carrying out total dephosphorylation experiments on each of these compounds.
An aqueous solution of the 1,2-dioxetane (4.0 mm) in 0.05M sodium carbonate/sodium bicarbonate containing 1 mM magnesium chloride was prepared and then equilibrated at 30° C. Ten μl of a 7.64×10M aqueous solution of alkaline phosphatase (calf intestine; Biozyme) was then added, and the chemiluminescence from the resulting solution was recorded using a Turner Model 20E luminometer (Turner Instruments; Sunnyvale, Calif.).
The rates of chemiluminescence decay for each of the five compounds in question, expressed in relative light units (RLU's) per minute, are given in the following table.

[2] = target: alkaline phosphatase (Bos taurus, UniProt P19111); experiment: Chemiluminescent signal and signal:background with enhancer polymers (Example XVII); type: biochemical
alkaline phosphatase, sequence (P19111 20-506 limits assumed): as above
Protocol: Four sets of three tubes each, each tube in each set containing 450 μl of a 0.4 mM aqueous solution of one of the four 1,2-dioxetanes being compared in 0.1M diethanolamine containing 1 mM magnesium chloride, 0.02% sodium azide and 0.1% of the enhancer polymer, pH 10.0 (substrate buffer) were prepared and the background signal from each tube measured using a Berthold LB 952T luminometer (Berthold Instruments; Wildbad, Federal Republic of Germany).
Next, 50 μl of an aqueous solution, 2.83×10^-12 M of alkaline phosphatase in 0.1M diethanolamine containing 1 mM magnesium chloride, 0.02% sodium azide, pH 10.0, (final enzyme concentration 2.83×10^-13 M) was added to each tube and the chemiluminescent signals were measured in the luminometer at 5 and 20 minutes. The intensity of the chemiluminescent signals and the signal: background ratios obtained for each of the four 1,2-dioxetanes in the presence of the enhancer polymers are shown in Table III below.
The enhancer polymers used, and the symbols for such polymers used in Table III, were the following: […]

COC1(c2cccc(OP(=O)(O)O)c2)OOC12C1CC3CC2CC(O)(C3)C1 (single isomer, unassigned) [A-OH-AMPPD, disodium 3-(4-methoxyspiro-[1,2-dioxetane-3,2'-(5'-hydroxy)tricyclo[3.3.1.1^3,7]decan]-4-yl)phenyl phosphate]
Total Decay Time [1]: 9 min
Decay Rate I ([1]; RLU's per minute): 1.3 RLU's per minute
S/N ([2]; polymer BAEDM, 5 min): 61.6
SIGNAL ([2]; polymer BAEDM, 5 min): 5887.3
S/N ([2]; polymer BAEDM, 20 min): 77.8
SIGNAL ([2]; polymer BAEDM, 20 min): 7433.5
S/N ([2]; polymer BAEDM, time 0): 1.0
SIGNAL ([2]; polymer BAEDM, time 0 (background, before enzyme)): 95.6
S/N ([2]; polymer BZ, 5 min): 27.0
SIGNAL ([2]; polymer BZ, 5 min): 2156.9
S/N ([2]; polymer BZ, 20 min): 31.7
SIGNAL ([2]; polymer BZ, 20 min): 2536.7
S/N ([2]; polymer BZ, time 0): 1.0
SIGNAL ([2]; polymer BZ, time 0 (background, before enzyme)): 79.9
S/N ([2]; polymer DAA TMQ, 5 min): 61.7
SIGNAL ([2]; polymer DAA TMQ, 5 min): 5583.1
S/N ([2]; polymer DAA TMQ, 20 min): 69.7
SIGNAL ([2]; polymer DAA TMQ, 20 min): 6309.4
S/N ([2]; polymer DAA TMQ, time 0): 1.0
SIGNAL ([2]; polymer DAA TMQ, time 0 (background, before enzyme)): 90.5
S/N ([2]; polymer DME(OH)B, 5 min): 46.1
SIGNAL ([2]; polymer DME(OH)B, 5 min): 3931.9
S/N ([2]; polymer DME(OH)B, 20 min): 66.2
SIGNAL ([2]; polymer DME(OH)B, 20 min): 5300.5
S/N ([2]; polymer DME(OH)B, time 0): 1.0
SIGNAL ([2]; polymer DME(OH)B, time 0 (background, before enzyme)): 85.2
S/N ([2]; polymer DMEB, 5 min): 77.1
SIGNAL ([2]; polymer DMEB, 5 min): 6160.6
S/N ([2]; polymer DMEB, 20 min): 98.1
SIGNAL ([2]; polymer DMEB, 20 min): 7835.2
S/N ([2]; polymer DMEB, time 0): 1.0
SIGNAL ([2]; polymer DMEB, time 0 (background, before enzyme)): 79.9
S/N ([2]; polymer DMQ TEQ, 5 min): 189.7
SIGNAL ([2]; polymer DMQ TEQ, 5 min): 17235.6
S/N ([2]; polymer DMQ TEQ, 20 min): 227.9
SIGNAL ([2]; polymer DMQ TEQ, 20 min): 20702.2
S/N ([2]; polymer DMQ TEQ, time 0): 1.0
SIGNAL ([2]; polymer DMQ TEQ, time 0 (background, before enzyme)): 90.8
S/N ([2]; polymer MPB, 5 min): 140.7
SIGNAL ([2]; polymer MPB, 5 min): 13165.3
S/N ([2]; polymer MPB, 20 min): 172.7
SIGNAL ([2]; polymer MPB, 20 min): 16159.2
S/N ([2]; polymer MPB, time 0): 1.0
SIGNAL ([2]; polymer MPB, time 0 (background, before enzyme)): 93.6
S/N ([2]; polymer NONE, 5 min): 32.9
SIGNAL ([2]; polymer NONE, 5 min, enzyme 2.83×10^-13 M): 2863.6
S/N ([2]; polymer NONE, 20 min): 36.3
SIGNAL ([2]; polymer NONE, 20 min, enzyme 2.83×10^-13 M): 3160.8
S/N ([2]; polymer NONE, time 0): 1.0
SIGNAL ([2]; polymer NONE, time 0 (background, before enzyme)): 87.0
S/N ([2]; polymer S/TMQ(1:2), 5 min): 112.5
SIGNAL ([2]; polymer S/TMQ(1:2), 5 min): 10193.8
S/N ([2]; polymer S/TMQ(1:2), 20 min): 158.6
SIGNAL ([2]; polymer S/TMQ(1:2), 20 min): 11365.1
S/N ([2]; polymer S/TMQ(1:2), time 0): 1.0
SIGNAL ([2]; polymer S/TMQ(1:2), time 0 (background, before enzyme)): 90.6
S/N ([2]; polymer S/TMQ(1:4), 5 min): 114.5
SIGNAL ([2]; polymer S/TMQ(1:4), 5 min): 9294.6
S/N ([2]; polymer S/TMQ(1:4), 20 min): 148.1
SIGNAL ([2]; polymer S/TMQ(1:4), 20 min): 1201.7
S/N ([2]; polymer S/TMQ(1:4), time 0): 1.0
SIGNAL ([2]; polymer S/TMQ(1:4), time 0 (background, before enzyme)): 81.2
SIGNAL ([2]; polymer SAPPHIRE (BDMQ), time 0 (background, before enzyme)): 86.1
S/N ([2]; polymer SAPPHIRE, 5 min): 244.5
SIGNAL ([2]; polymer SAPPHIRE, 5 min): 21051.3
S/N ([2]; polymer SAPPHIRE, 20 min): 292.3
SIGNAL ([2]; polymer SAPPHIRE, 20 min): 25330.3
S/N ([2]; polymer SAPPHIRE, time 0): 1.0
S/N ([2]; polymer TBQ, 5 min): 366.0
SIGNAL ([2]; polymer TBQ, 5 min): 37244.5
S/N ([2]; polymer TBQ, 20 min): 438.0
SIGNAL ([2]; polymer TBQ, 20 min): 44569.8
S/N ([2]; polymer TBQ, time 0): 1.0
SIGNAL ([2]; polymer TBQ, time 0 (background, before enzyme)): 101.8
S/N ([2]; polymer TEQ, 5 min): 45.24
SIGNAL ([2]; polymer TEQ, 5 min): 15779.8
S/N ([2]; polymer TEQ, 20 min): 54.7
SIGNAL ([2]; polymer TEQ, 20 min): 1908.9
S/N ([2]; polymer TEQ, time 0): 1.0
SIGNAL ([2]; polymer TEQ, time 0 (background, before enzyme)): 348.8
S/N ([2]; polymer TMQ, 5 min): 113.6
SIGNAL ([2]; polymer TMQ, 5 min): 8853.4
S/N ([2]; polymer TMQ, 20 min): 149.6
SIGNAL ([2]; polymer TMQ, 20 min): 11658.3
S/N ([2]; polymer TMQ, time 0): 1.0
SIGNAL ([2]; polymer TMQ, time 0 (background, before enzyme)): 77.9
